Reference: ChEMBL document CHEMBL1629463, “In vitro anti-rotavirus activity of polyphenol compounds isolated from the roots of Glycyrrhiza uralensis” (Bioorg Med Chem, 2010)
≈ marks a conversion by molar mass, not a printed value. Calls of active or inactive are those of the source. The calls are words filed in the database; no cut-off is given here.

Assays:
[1] = Selectivity index, ratio of CC50 for african green monkey TF-104 cells to EC50 for cytopathic inhibition activity against KJ56-1 Povine rotavirus […]; assay type: toxicity, cell-based; settings: read-out: Ratio CC50/EC50
Porcine rotavirus [2] = assay: Antiviral activity against KJ56-1 Porcine rotavirus G5P[7] infected in african green monkey TF-104 cells after 72 hrs by virucidal assay; assay type: functional, cell-based; settings: Rotavirus A, TF-104, 72 h
[3] = Cytotoxicity against african green monkey TF-104 cells after 72 hrs by MTT assay; assay type: cell-based; settings: chlorocebus aethiops
Bovine rotavirus [4] = assay: Antiviral activity against KJ56-1 Bovine rotavirus G8P[7] infected in african green monkey TF-104 cells assessed as inhibition of viral mRNA synthesis at 40 to 50 uM after 18 hrs by RT-PCR analysis; assay type: functional, cell-based
Porcine rotavirus [5] = assay: Antiviral activity against KJ56-1 Porcine rotavirus G5P[7] in human RBC assessed as inhibition of virus-induced hemagglutinination after 1 hr; assay type: functional
[6] = Selectivity index, ratio of CC50 for african green monkey TF-104 cells to EC50 for cytopathic inhibition activity against KJ56-1 Bovine rotavirus G8P[7]; assay type: toxicity, cell-based; settings: read-out: Ratio CC50/EC50
Porcine rotavirus [7] = assay: Antiviral activity against KJ56-1 Porcine rotavirus G5P[7] infected in african green monkey TF-104 cells assessed as inhibition of viral mRNA synthesis at 40 to 50 uM after 18 hrs by RT-PCR analysis; assay type: functional, cell-based
Porcine rotavirus [8] = assay: Antiviral activity against KJ56-1 Porcine rotavirus G5P[7] infected in african green monkey TF-104 cells assessed as inhibition of virus-induced cytopathic effect after 72 hrs; assay type: functional, cell-based; settings: TF-104, 72 h
Bovine rotavirus [9] = assay: Antiviral activity against KJ56-1 Bovine rotavirus G8P[7] in human RBC assessed as inhibition of virus-induced hemagglutinination after 1 hr; assay type: functional; settings: Rotavirus A
Bovine rotavirus [10] = assay: Antiviral activity against KJ56-1 Bovine rotavirus G8P[7] infected in african green monkey TF-104 cells assessed as inhibition of virus-induced cytopathic effect after 72 hrs; assay type: functional, cell-based; settings: Rotavirus A, TF-104, 72 h
[11] = Selectivity index, ratio of CC50 for african green monkey TF-104 cells to EC50 for KJ56-1 Bovine rotavirus G8P[7] by virucidal assay; assay type: toxicity, cell-based; settings: read-out: Ratio CC50/EC50
Bovine rotavirus [12] = assay: Antiviral activity against KJ56-1 Bovine rotavirus G8P[7] infected in african green monkey TF-104 cells assessed as inhibition of viral replication at 30 uM after 24 hrs by immunofluorescence assay; assay type: functional, cell-based
Bovine rotavirus [13] = assay: Antiviral activity against KJ56-1 Bovine rotavirus G8P[7] infected in african green monkey TF-104 cells after 72 hrs by virucidal assay; assay type: functional, cell-based; settings: Rotavirus A, TF-104, 72 h
Porcine rotavirus [14] = assay: Antiviral activity against KJ56-1 Porcine rotavirus G5P[7] infected in african green monkey TF-104 cells assessed as inhibition of viral replication at 30 uM after 24 hrs by immunofluorescence assay; assay type: functional, cell-based
[15] = Selectivity index, ratio of CC50 for african green monkey TF-104 cells to EC50 for virucidal activity against KJ56-1 Povine rotavirus […]; assay type: toxicity, cell-based; settings: read-out: Ratio CC50/EC50

SMILES	selectivity ratio [1]	EC50 (Porcine rotavirus [2]) [µM]	CC50 at 72 h [3] [µM]	inhibition (Bovine rotavirus [4])	MIC (Porcine rotavirus [5])	selectivity ratio [6]	inhibition (Porcine rotavirus [7])	EC50 (Porcine rotavirus [8]) [µM]	MIC (Bovine rotavirus [9]) [µM]	EC50 (Bovine rotavirus [10]) [µM]	selectivity ratio [11]	inhibition (Bovine rotavirus [12])	EC50 (Bovine rotavirus [13]) [µM]	inhibition (Porcine rotavirus [14])	selectivity ratio [15]
COc1cc(O)ccc1C(=O)/C=C/c1ccc(O)cc1	5.6	69.5	> 133	Active	inactive	> 3.2	Active	24	17.2 (≈ 4.65 µg/mL)	41.8	–	–	–	–	–
CC(C)=CCc1c(O)cc2oc(-c3ccc(O)cc3)c(O)c(=O)c2c1O [LICOFLAVONOL]	–	36.8	85.3	Active	17.2 µM (≈ 6.09 µg/mL)	3.3	Active	–	17.2 (≈ 6.09 µg/mL)	25.9	5.5	Active	15.5	inactive	2.3
COc1c(CC=C(C)C)c(O)cc2c1C[C@H](c1ccc(O)cc1O)CO2 [GLYASPERIN C]	3.6	18.7	42.8	Active	17.2 µM (≈ 6.13 µg/mL)	3.6	Active	12.1	17.2 (≈ 6.13 µg/mL)	12	2.9	Active	14.7	Active	2.3
COc1c(CC=C(C)C)c(O)cc2oc(-c3ccc(O)cc3O)cc12 [LICOCOUMARONE]	1.3	26.1	54.5	Active	17.2 µM (≈ 5.85 µg/mL)	2.5	Active	43.6	17.2 (≈ 5.85 µg/mL)	22.3	1.4	–	37.8	–	2.1
COc1cc2c(c(OC)c1CC=C(C)C)C[C@H](c1ccc(O)cc1O)CO2 [GLYASPERIN D]	–	–	68.1	Active	17.2 µM (≈ 6.37 µg/mL)	1.6	Active	–	17.2 (≈ 6.37 µg/mL)	42	5.7	Active	17.6	inactive	–
O=c1c(-c2ccc(O)cc2)coc2cc(O)cc(O)c12 [GENISTEIN]	–	–	174	–	–	1.8	–	–	–	99.6	–	–	–	–	–
COc1cc2oc(=O)c(-c3ccc(O)cc3O)cc2c(OC)c1CC=C(C)C [GLYCYRIN]	–	–	> 133	–	17.2 µM (≈ 6.58 µg/mL)	–	–	–	17.2 (≈ 6.58 µg/mL)	> 100	> 1.5	–	88.1	–	–
